Laboratory results taken from article PMC5548886 (Cancer Medicine, 2017).

Tests used:
Type in all cases: in vivo, human
cyclin D1 = assay: IHC of tumor biopsies, H-score change on-treatment vs pretreatment
Method: (§1) Pharmacodynamic markers were examined using peripheral blood samples, tumor and nevi biopsies (when available) and tumor imaging. BRAF mutation status was determined by Sanger sequencing. Pharmacodynamic markers analyzed, in available tumor/nevus samples obtained before treatment or archival tissue and during treatment on cycle 1, day 8 or day 15, including cytoplasmic p‐MEK, p‐ERK, BIM, c‐KIT, p‐AKT473, pS6 and PTEN, and nuclear p‐ERK, Ki‐67, PARP, cyclin D1, MITF, p27, and p53. Biomarker expression was determined by calculating the percentage of change in the H‐score (14) between on‐treatment and fresh/archival pretreatment specimens. Blood levels of VEGFR‐2 and were assessed before and at multiple time points while on treatment using enzyme‐linked immunosorbent assay (ELISA). […] Changes in standard uptake value (SUV) were determined by a blinded, independent central imaging review panel. Complete metabolic response (CMR) was complete resolution of tumor FDG‐PET uptake so SUV is the same as background. Partial metabolic response (PMR) decrease in sum of the tumor SUV of ≥25% from the baseline scan. Progressive metabolic disease (PMD) was defined as an increase in tumor SUV of ≥25% from the baseline scan, or the appearance of new FDG‐PET uptake in metastatic lesions. Stable metabolic disease (SMD) was defined as a change in tumor SUV between the PMR and PMD criteria.

p53 = assay: as above
Method: as §1

[1] = system: locally advanced or metastatic melanoma; assay: Antitumor response by RECIST 1.0
Method: Medical history and demographics were collected at screening. The safety of study medication was evaluated on the basis of rate, type, severity graded in accordance with NCI CTCAE version 3.0. Safety assessments consisted of collecting all AEs, serious adverse events (SAEs) with their severity and relationship with study drug, and pregnancies. They included the regular monitoring of hematology, blood chemistry and urine performed at the study center/central laboratory and regular assessments of vital signs, physical condition, body weight, performance status, and cardiac data (i.e. electrocardiogram (ECG)/echocardiogram (ECHO)). Abnormalities in clinical laboratory tests that were considered clinically significant by the Investigator were recorded on the AE CRF. Dose‐limiting toxicities (DLTs) were defined for various organ systems and other clinically relevant adverse effects (Table S1). The DLT window was the first cycle while AEs were captured for the entire course of treatment. Evaluation of tumor response was conducted at Baseline, and at the end of every 8 weeks of treatment. Response was assessed using the Response Evaluation Criteria in Solid Tumors (RECIST) 1.0. […] All patients discontinuing from the study for progressive disease were to have their disease progression documented by radiologic evaluation.

[2] = 33 patients with BRAF-WT melanomas
[3] = BRAF mutation, All patients, 33 evaluable
[4] = BRAF mutation, DL 5, 8 evaluable
[5] = BRAF mutation, DL 6, 10 evaluable
[6] = BRAF mutation, DLs 1 to 4, 6 evaluable
[7] = BRAF mutation, DLs 7 and 7.1, 9 evaluable
[8] = BRAF unspecified/unknown, All patients, 5 evaluable
[9] = BRAF unspecified/unknown, DL 5, 0 evaluable
[10] = BRAF unspecified/unknown, DL 6, 2 evaluable

## Cn1c(Nc2ccc(C(F)(F)F)cc2)nc2cc(Oc3ccnc(-c4ncc(C(F)(F)F)[nH]4)c3)ccc21 [RAF265]
Cyclin D1; All patients, n 23
  Cyclin D1 % change vs pretreatment, Mean (SD): +0.19 (93.7) %
  Cyclin D1 % change vs pretreatment, Median: -25%
Cyclin D1; DL 5, n 3
  Cyclin D1 % change vs pretreatment, Mean (SD): +56.8 (125.6) %
  Cyclin D1 % change vs pretreatment, Median: +5.00%
Cyclin D1; DL 6, n 5
  Cyclin D1 % change vs pretreatment, Mean (SD): -49.12 (30.7) %
  Cyclin D1 % change vs pretreatment, Median: -48.9%
Cyclin D1; DLs 1 - 4, n 10
  Cyclin D1 % change vs pretreatment, Mean (SD): -4.5 (95) %
  Cyclin D1 % change vs pretreatment, Median: -24%
Cyclin D1; DLs 7 and 7.1, n 5
  Cyclin D1 % change vs pretreatment, Mean (SD): +25 (113.6) %
  Cyclin D1 % change vs pretreatment, Median: 0%
Cyclin D1; in vivo
  cyclin D1, median decrease: 25%
p53; All patients, n 20
  P53 % change vs pretreatment, Mean (SD): +42.14 (195.033) %
p53; DL 5, n 2
  P53 % change vs pretreatment, Mean (SD): +82.33(190.5) %
  P53 % change vs pretreatment, Median: +82.4%
p53; DL 6, n 4
  P53 % change vs pretreatment, Mean (SD): +49.32 (123.273) %
  P53 % change vs pretreatment, Median: -3.8%
p53; DLs 1 - 4, n 10
  P53 % change vs pretreatment, Mean (SD): -27.30 (49.484) %
  P53 % change vs pretreatment, Median: -29.2%
p53; DLs 7 and 7.1, n 4
  P53 % change vs pretreatment, Mean (SD): +188.5 (400.62) %
  P53 % change vs pretreatment, Median: 0%
[1]; [2]
  number of CR: one
  number of PR: two
[1]; 39 patients with BRAF V600E mutation
  number of PR: Four
[1]; 66 evaluable patients
  number of complete responses (CR): one
  number of partial responses (PR): seven
[1]; 66 evaluable patients, all dose levels
  objective response rate (ORR), RECIST: 12.1%
[1]; All patients, 66 evaluable
  Best response CR or PR: 8 (12.1) n (%)
  Best response CR, PR or SD: 35 (53) n (%)
[1]; [3]
  Complete response (CR), best overall response: 0 n (%)
  Partial response (PR), best overall response: 4 (12) n (%)
  Progressive disease (PD), best overall response: 14 (42) n (%)
  Stable disease (SD), best overall response: 15 (46) n (%)
[1]; [4]
  Complete response (CR), best overall response: 0 n (%)
  Partial response (PR), best overall response: 1 (12.5) n (%)
  Progressive disease (PD), best overall response: 4 (50) n (%)
  Stable disease (SD), best overall response: 3 (37.5) n (%)
[1]; [5]
  Complete response (CR), best overall response: 0 n (%)
  Partial response (PR), best overall response: 1 (10) n (%)
  Progressive disease (PD), best overall response: 2 (20) n (%)
  Stable disease (SD), best overall response: 7 (70) n (%)
[1]; [6]
  Complete response (CR), best overall response: 0 n (%)
  Partial response (PR), best overall response: 2 (33.3) n (%)
  Progressive disease (PD), best overall response: 4 (66.7) n (%)
  Stable disease (SD), best overall response: 0 n (%)
[1]; [7]
  Complete response (CR), best overall response: 0 n (%)
  Partial response (PR), best overall response: 0 n (%)
  Progressive disease (PD), best overall response: 4 (44) n (%)
  Stable disease (SD), best overall response: 5 (56) n (%)
[1]; [8]
  Complete response (CR), best overall response: 0 n (%)
  Partial response (PR), best overall response: 1 (20) n (%)
  Progressive disease (PD), best overall response: 3 (60) n (%)
  Stable disease (SD), best overall response: 1 (20) n (%)
[1]; [9]
  Complete response (CR), best overall response: 0 n (%)
  Partial response (PR), best overall response: 0 n (%)
  Progressive disease (PD), best overall response: 0 n (%)
  Stable disease (SD), best overall response: 0 n (%)
[1]; [10]
  Complete response (CR), best overall response: 0 n (%)
  Partial response (PR), best overall response: 0 n (%)
